We go through one compound from patent US20190038628A1, “USE OF INHIBITORS OF THE ACTIVITY OR FUNCTION OF PI3K FOR THE TREATMENT OF PRIMARY SJOGREN'S SYNDROME” (Novartis AG, priority 2016, published 2019).

Structures are written as SMILES.

The experiment concerns Mouse BCR transgenic B cells. Description: Antigen presentation of mouse BCR transgenic B cells (antigen-loading via MHC II). In kind it is cell-based. The conditions noted are these: Mouse BCR tg B cell; stimulus HEL; mean of at least four experiments; read-out: IC50 APC function. An excerpt: Purification of CD19^+ splenic B cells from MD4 HEL BcR Tg mice MD4 HEL BcR transgenic B10.BR (MD4 B10.BR) mice were a kind gift from Prof. Jose Moreno (Research Unit on Autoimmune Diseases, Centro Medico Nacional Siglo XXI, Mexico).
The spleens were isolated from MD4 B10.BR and non-transgenic litter control B10.BR mice after sacrificed by exposure to excess amount of isoflurane. The isolated spleens were suspended in RPMI1640 (Invitrogen, #31870), and dissociated by GentleMACS Dissociator (Miltenyi Biotec), and filtrated with Cell Strainer (BD Falcon, 70 μm mesh, #352350). […] The purity was determined via the proportion of CD19 cells in the separated fraction in FACS analysis, and was more than 95%.
Purified B cells were re-suspended in 50 μl of ice-cold FACS buffer (PBS supplemented with 0.1% azide and 0.1% BSA). […] Stained cell samples were washed with 5 ml of ice-cold FACS buffer twice, and analyzed by FACS Calibur (BD Bioscience). […]
FACS Data was analyzed, and their mean fluorescence intensity (MFI) were calculated with FlowJo software (Tree Star Inc). The IC50 values were calculated with GraphPad PRISM ver 6.0 software (GraphPad Software Inc). […]

Usually IC50 stands for the concentration that gives 50% inhibition.

As to `CCC(=O)N1CC[C@H](Nc2ncnc3c2CN(c2cnc(OC)c(C(F)(F)F)c2)CC3)C1` [Compound A, 1-{(S)-3-[6-(6-Methoxy-5-trifluoromethyl-pyridin-3-yl)-5,6,7,8-tetrahydro-pyrido[4,3-d]pyrimidin-4-ylamino]-pyrrolidin-1-yl}-propan-1-one], the IC50 is 395 nM.
